Measured values: patent publication US20230028224A1, “Novel Topical Therapy” (priority 2019, published 2023)

Assays:
[1] = injection of occipital nerves followed by SPG block; format: in vivo; conditions: 0.5% injected into occipital nerves, then SPG block
Excerpt: (§1) Another aspect of the invention is the combination of stimulation of SPG with branches of Trigeminal nerves, or occipital nerves. There is known C-2 and 3 connection with Trigeminal nerve and SPG and likely with C1.

[2] = injection of the Supratrochlear nerve followed by SPG block; format: in vivo; conditions: bupivacaine 0.5% injected to the Supratrochlear nerve, SPG block subsequently
Excerpt: as §1

With `CCCCN1CCCCC1C(=O)Nc1c(C)cccc1C` (centres unmarked) [bupivacaine] the headache [1] was “headache was further decreased with SPG block” and the “result of subsequent SPG block” value [2] was “better result with SPG block subsequently”.
